Starred links: 1 amine or outer side, 2 acyl side, 3 side chain; linkers in the order of their positions; H or OH if unused. Non-standard residues stand in square brackets, D forms with d. Residues, ends and D or L forms follow the SMILES beside them. dPro(4R-(4-pyridylmethyl)) = O=C(O)[C@H]1C[C@@H](Cc2ccncc2)CN1; Ala(piperidin-4-yl) = O=C([C@H](CC1CCN([*:3])CC1)N[*:1])[*:2]; Trp(βS-Me,4-F) = C[C@@H](c1c[nH]c2cccc(F)c12)[C@H](N)C(=O)O; Bip(4'-COOH) = N[C@@H](Cc1ccc(-c2ccc(C(=O)O)cc2)cc1)C(=O)O; Ala(1-bicyclo(1.1.1)pentyl) = N[C@@H](CC12CC(C1)C2)C(=O)O; dPro(4R-Bzl(4-F)) = O=C(O)[C@H]1C[C@@H](Cc2ccc(F)cc2)CN1; Ala(morpholin-4-yl) = N[C@@H](CN1CCOCC1)C(=O)O; Ala(piperazin-1-yl) = N[C@@H](CN1CCNCC1)C(=O)O; Phe(4-COOH) = N[C@@H](Cc1ccc(C(=O)O)cc1)C(=O)O; Pro(cis-4-F) = O=C(O)[C@@H]1C[C@H](F)CN1; d(αMeS) = C[C@@](N)(CO)C(=O)O; αMeK = C[C@](N)(CCCCN)C(=O)O; Dab = NCC[C@H](N)C(=O)O; Aib = CC(C)(N)C(=O)O

T1 sequence (P01584 117-269): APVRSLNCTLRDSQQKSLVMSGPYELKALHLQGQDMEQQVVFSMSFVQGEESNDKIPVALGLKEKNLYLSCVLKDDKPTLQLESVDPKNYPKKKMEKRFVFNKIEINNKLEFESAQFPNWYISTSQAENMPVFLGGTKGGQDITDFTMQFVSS

The test addresses T1, IL-1β (Homo sapiens, UniProt P01584).
T1 construct: purchased BioLegend 579404
The test is described as follows: IL-6 assay in MRC5 cells: inhibition of IL-1β induced IL-6 secretion (AlphaLISA). Conditions: inhibition of IL-1β induced IL-6 secretion in MRC5 cells; read-out: MRC5 IC50. The format is cell-based. The procedure, abridged: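 Compound was pre-incubated 1 h at ambient temperature with recombinant human IL-1β at 2λ EC80 before adding human lung fibroblast MRC5 cells (3000/well) in EMEM with 0.025% BSA. After overnight culture at 37 °C, 5% CO2, secreted IL-6 in conditioned medium was measured by AlphaLISA; IC50 from 4-parameter logistic fits.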
For orientation: In Alpha technology, singlet oxygen from a donor bead excites a nearby acceptor bead.
As a reminder, the IC50 is the concentration at which inhibition is half-maximal. As for `C[C@@H](c1c[nH]c2cccc(F)c12)[C@@H]1NC(=O)[C@@H]2C[C@H](F)CN2C(=O)CNC(=O)[C@H](Cc2ccc(C(=O)O)cc2)NC(=O)[C@H](CC23CC(C2)C3)NC(=O)[C@H](Cc2ccc(-c3ccc(C(=O)O)cc3)cc2)NC(=O)[C@H]2C[C@@H](Cc3ccc(F)cc3)CN2C(=O)CNC(=O)[C@H](CCN)NC(=O)[C@H](CCC(N)=O)NC(=O)[C@H](CN2CCOCC2)NC(=O)[C@@](C)(CO)NC(=O)[C@H](Cc2c[nH]c3ccccc23)NC(=O)[C@H](CO)NC(=O)C(C)(C)NC1=O` [Example 170] (cyclo([Bip(4'-COOH)][Ala(1-bicyclo(1.1.1)pentyl)][Phe(4-COOH)]G[Pro(cis-4-F)][Trp(βS-Me,4-F)][Aib]SW[d(αMeS)][Ala(morpholin-4-yl)]Q[Dab]G[dPro(4R-Bzl(4-F))])), the IC50 amounted to 0.015 nM.
Turning to `C[C@@H](c1c[nH]c2cccc(F)c12)[C@@H]1NC(=O)[C@@H]2C[C@H](F)CN2C(=O)CNC(=O)[C@H](Cc2ccc(C(=O)O)cc2)NC(=O)[C@H](CC23CC(C2)C3)NC(=O)[C@H](Cc2ccc(-c3ccc(C(=O)O)cc3)cc2)NC(=O)[C@H]2C[C@@H](Cc3ccc(F)cc3)CN2C(=O)CNC(=O)[C@H](CCN)NC(=O)[C@H](CCC(N)=O)NC(=O)[C@H](CN2CCNCC2)NC(=O)[C@@](C)(CO)NC(=O)[C@H](Cc2c[nH]c3ccccc23)NC(=O)[C@H](CO)NC(=O)C(C)(C)NC1=O` [Example 171] (cyclo([Bip(4'-COOH)][Ala(1-bicyclo(1.1.1)pentyl)][Phe(4-COOH)]G[Pro(cis-4-F)][Trp(βS-Me,4-F)][Aib]SW[d(αMeS)][Ala(piperazin-1-yl)]Q[Dab]G[dPro(4R-Bzl(4-F))])), the IC50 was 0.016 nM.
As for `C[C@@H](c1c[nH]c2cccc(F)c12)[C@@H]1NC(=O)[C@@H]2C[C@H](F)CN2C(=O)CNC(=O)[C@H](Cc2ccc(C(=O)O)cc2)NC(=O)[C@H](CC23CC(C2)C3)NC(=O)[C@H](Cc2ccc(-c3ccc(C(=O)O)cc3)cc2)NC(=O)[C@H]2C[C@@H](Cc3ccc(F)cc3)CN2C(=O)CNC(=O)[C@H](CCN)NC(=O)[C@H](CCC(N)=O)NC(=O)[C@H](CC2CCNCC2)NC(=O)[C@@](C)(CO)NC(=O)[C@H](Cc2c[nH]c3ccccc23)NC(=O)[C@H](CO)NC(=O)C(C)(C)NC1=O` [Example 172] (cyclo([Bip(4'-COOH)][Ala(1-bicyclo(1.1.1)pentyl)][Phe(4-COOH)]G[Pro(cis-4-F)][Trp(βS-Me,4-F)][Aib]SW[d(αMeS)][Ala(piperidin-4-yl)]Q[Dab]G[dPro(4R-Bzl(4-F))])), the IC50 worked out at 0.016 nM.
For `C[C@@H](c1c[nH]c2cccc(F)c12)[C@@H]1NC(=O)[C@@H]2C[C@H](F)CN2C(=O)CNC(=O)[C@H](Cc2ccc(C(=O)O)cc2)NC(=O)[C@H](CC23CC(C2)C3)NC(=O)[C@H](Cc2ccc(-c3ccc(C(=O)O)cc3)cc2)NC(=O)[C@H]2C[C@@H](Cc3ccc(F)cc3)CN2C(=O)CNC(=O)[C@H](CO)NC(=O)[C@H](CCC(N)=O)NC(=O)[C@H](CN2CCOCC2)NC(=O)[C@](C)(CCCCN)NC(=O)[C@H](Cc2c[nH]c3ccccc23)NC(=O)[C@H](CO)NC(=O)C(C)(C)NC1=O` [Example 173] (cyclo([Bip(4'-COOH)][Ala(1-bicyclo(1.1.1)pentyl)][Phe(4-COOH)]G[Pro(cis-4-F)][Trp(βS-Me,4-F)][Aib]SW[αMeK][Ala(morpholin-4-yl)]QSG[dPro(4R-Bzl(4-F))])) the value was 0.037 nM; for `C[C@@H](c1c[nH]c2cccc(F)c12)[C@@H]1NC(=O)[C@@H]2C[C@H](F)CN2C(=O)CNC(=O)[C@H](Cc2ccc(C(=O)O)cc2)NC(=O)[C@H](CC23CC(C2)C3)NC(=O)[C@H](Cc2ccc(-c3ccc(C(=O)O)cc3)cc2)NC(=O)[C@H]2C[C@@H](Cc3ccc(F)cc3)CN2C(=O)CNC(=O)[C@H](CCN)NC(=O)[C@H](CCC(N)=O)NC(=O)[C@H](CN2CCOCC2)NC(=O)[C@](C)(CCCCN)NC(=O)[C@H](Cc2c[nH]c3ccccc23)NC(=O)[C@H](CO)NC(=O)C(C)(C)NC1=O` [Example 174] (cyclo([Bip(4'-COOH)][Ala(1-bicyclo(1.1.1)pentyl)][Phe(4-COOH)]G[Pro(cis-4-F)][Trp(βS-Me,4-F)][Aib]SW[αMeK][Ala(morpholin-4-yl)]Q[Dab]G[dPro(4R-Bzl(4-F))])), 0.025 nM.
As for `C[C@@H](c1c[nH]c2cccc(F)c12)[C@@H]1NC(=O)[C@@H]2C[C@H](F)CN2C(=O)CNC(=O)[C@H](Cc2ccc(C(=O)O)cc2)NC(=O)[C@H](CC23CC(C2)C3)NC(=O)[C@H](Cc2ccc(-c3ccc(C(=O)O)cc3)cc2)NC(=O)[C@H]2C[C@@H](Cc3ccc(F)cc3)CN2C(=O)CNC(=O)[C@H](CO)NC(=O)[C@H](CCC(N)=O)NC(=O)[C@H](CN2CCNCC2)NC(=O)[C@](C)(CCCCN)NC(=O)[C@H](Cc2c[nH]c3ccccc23)NC(=O)[C@H](CO)NC(=O)C(C)(C)NC1=O` [Example 175] (cyclo([Bip(4'-COOH)][Ala(1-bicyclo(1.1.1)pentyl)][Phe(4-COOH)]G[Pro(cis-4-F)][Trp(βS-Me,4-F)][Aib]SW[αMeK][Ala(piperazin-1-yl)]QSG[dPro(4R-Bzl(4-F))])), the IC50 was determined as 0.037 nM.
For the molecule `C[C@@H](c1c[nH]c2cccc(F)c12)[C@@H]1NC(=O)[C@@H]2C[C@H](F)CN2C(=O)CNC(=O)[C@H](Cc2ccc(C(=O)O)cc2)NC(=O)[C@H](CC23CC(C2)C3)NC(=O)[C@H](Cc2ccc(-c3ccc(C(=O)O)cc3)cc2)NC(=O)[C@H]2C[C@@H](Cc3ccncc3)CN2C(=O)CNC(=O)[C@H](CO)NC(=O)[C@H](CCC(N)=O)NC(=O)[C@H](CC2CCNCC2)NC(=O)C(C)(C)NC(=O)[C@H](Cc2c[nH]c3ccccc23)NC(=O)[C@H](CCC(=O)O)NC(=O)C(C)(C)NC1=O` [Example 176] (cyclo([Bip(4'-COOH)][Ala(1-bicyclo(1.1.1)pentyl)][Phe(4-COOH)]G[Pro(cis-4-F)][Trp(βS-Me,4-F)][Aib]EW[Aib][Ala(piperidin-4-yl)]QSG[dPro(4R-(4-pyridylmethyl))])), the half-maximal inhibitory concentration (IC50) worked out at 0.036 nM.
With `C[C@@H](c1c[nH]c2cccc(F)c12)[C@@H]1NC(=O)[C@@H]2C[C@H](F)CN2C(=O)CNC(=O)[C@H](Cc2ccc(C(=O)O)cc2)NC(=O)[C@H](CC23CC(C2)C3)NC(=O)[C@H](Cc2ccc(-c3ccc(C(=O)O)cc3)cc2)NC(=O)[C@H]2C[C@@H](Cc3ccncc3)CN2C(=O)CNC(=O)[C@H](CO)NC(=O)[C@H](CCC(N)=O)NC(=O)[C@H](CN2CCOCC2)NC(=O)[C@@](C)(CO)NC(=O)[C@H](Cc2c[nH]c3ccccc23)NC(=O)[C@H](CCC(=O)O)NC(=O)C(C)(C)NC1=O` [Example 177] (cyclo([Bip(4'-COOH)][Ala(1-bicyclo(1.1.1)pentyl)][Phe(4-COOH)]G[Pro(cis-4-F)][Trp(βS-Me,4-F)][Aib]EW[d(αMeS)][Ala(morpholin-4-yl)]QSG[dPro(4R-(4-pyridylmethyl))])), the IC50 came to 0.031 nM.
For the molecule `C[C@@H](c1c[nH]c2cccc(F)c12)[C@@H]1NC(=O)[C@@H]2C[C@H](F)CN2C(=O)CNC(=O)[C@H](Cc2ccc(C(=O)O)cc2)NC(=O)[C@H](CC23CC(C2)C3)NC(=O)[C@H](Cc2ccc(-c3ccc(C(=O)O)cc3)cc2)NC(=O)[C@H]2C[C@@H](Cc3ccncc3)CN2C(=O)CNC(=O)[C@H](CO)NC(=O)[C@H](CCC(N)=O)NC(=O)[C@H](CC2CCNCC2)NC(=O)[C@@](C)(CO)NC(=O)[C@H](Cc2c[nH]c3ccccc23)NC(=O)[C@H](CCC(=O)O)NC(=O)C(C)(C)NC1=O` [Example 178] (cyclo([Bip(4'-COOH)][Ala(1-bicyclo(1.1.1)pentyl)][Phe(4-COOH)]G[Pro(cis-4-F)][Trp(βS-Me,4-F)][Aib]EW[d(αMeS)][Ala(piperidin-4-yl)]QSG[dPro(4R-(4-pyridylmethyl))])), the IC50 amounted to 0.041 nM.

The values above are taken from patent US20260242419A1, “A CYCLIC PEPTIDE FOR TRAPPING INTERLEUKIN-1 BETA” (Merck Sharp & Dohme LLC, priority 2023, published 2026).
